How the values were obtained:
human GPR 119 receptor = molecular target: T1, human GPR 119 receptor (Homo sapiens, UniProt Q8TDV5); test: cAMP assay in stable cell line expressing recombinant human GPR 119 receptor; type: cell-based; details: for Fold increase in cyclic AMP with respective to DMSO: DMSO = 1
T1 construct: expressed in transfected cells
T1 sequence (Q8TDV5 1-335): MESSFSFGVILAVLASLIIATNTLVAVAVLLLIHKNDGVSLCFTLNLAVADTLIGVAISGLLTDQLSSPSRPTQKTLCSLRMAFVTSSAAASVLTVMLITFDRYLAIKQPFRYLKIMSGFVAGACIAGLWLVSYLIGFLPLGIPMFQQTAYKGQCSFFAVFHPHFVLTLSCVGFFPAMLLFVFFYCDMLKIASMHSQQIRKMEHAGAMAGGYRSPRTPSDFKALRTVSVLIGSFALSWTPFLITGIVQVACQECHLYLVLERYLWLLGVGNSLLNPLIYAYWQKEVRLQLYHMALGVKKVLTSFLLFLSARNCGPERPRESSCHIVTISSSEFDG
Source text: A stable cell line expressing recombinant human GPR 119 receptor was established and used to investigate the efficacy of the compounds of the invention based on the intracellular levels of cyclic AMP (cAMP) using commercially available cAMP kits.

C57/BL6 mice = test: Oral Glucose Tolerance Tests (OGTT) in C57/BL6 mice; type: in vivo; details: single oral dose, glucose load 3 gm/kg, serum glucose AUC, head 50 mg/kg
Procedure: In Vivo Efficacy Studies: Oral Glucose Tolerance Tests (OGTT) in C57/13L6 mice:
C57/BL6 mice of 6-8 week age are used for this experiment. Animals are grouped based on non-fasting serum glucose levels and kept on fasting for overnight (day before OGTT). On the experiment day, […], 30 min post dosing animals are bled for basal glucose level estimation and at the same time glucose load (3 gm/kg) will be administered per orally. Blood is collected at time points corresponding to 20, 40, 60 and 120 min after glucose load administration. Serum is separated for determination of glucose levels and change in area under curve for glucose is calculated and provided in Table 3 as % to reduction in AUC.

Row | Fold increase in cyclic AMP with respective to DMSO (human GPR 119 receptor; 10 nM compound) | Fold increase in cyclic AMP with respective to DMSO (human GPR 119 receptor; 100 nM compound) | Fold increase in cyclic AMP with respective to DMSO (human GPR 119 receptor; 1 uM compound) | EC50 (human GPR 119 receptor) | SMILES | % reduction in AUC at 50 mg/kg (C57/BL6 mice)
1 | 0.97 fold | 1.47 fold | 2.07 fold |  | O=C1NC(=O)/C(=C/c2ccc(Oc3cc(OC4CCN(Cc5ccccc5)CC4)ncn3)cc2)S1 [Example 37, (Z)-5-(4-((6-((1-Benzylpiperidin-4-yl)oxy)pyrimidin-4-yl)oxy)benzylidene)thiazolidine-2,4-dione] | 
2 | 0.34 fold | 0.67 fold | 1.64 fold |  | Cc1c(Oc2ccc(/C=C3\SC(=O)NC3=O)cc2)ncnc1OC1CCN(Cc2ccccc2)CC1 [Example 38, (Z)-5-(4-((6-((1-Benzylpiperidin-4-yl)oxy)-5-methylpyrimidin-4-yl)oxy)benzylidene)thiazolidine-2,4-dione] | 
3 | 0.85 fold | 1.38 fold | 2.20 fold |  | O=C1NC(=O)/C(=C/c2cccc(Oc3cc(OC4CCN(Cc5ccccc5)CC4)ncn3)c2)S1 [Example 39, (Z)-5-(3-((6-((1-Benzylpiperidin-4-yl)oxy)pyrimidin-4-yl)oxy)benzylidene)thiazolidine-2,4-dione] | 
4 | 0.87 fold | 1.21 fold | 1.66 fold |  | COc1cc(/C=C2\SC(=O)NC2=O)ccc1Oc1cc(OC2CCN(C(=O)OC(C)(C)C)CC2)ncn1 [Example 40, (Z)-tert-Butyl 4-((6-(4-((2,4-dioxothiazolidin-5-ylidene)methyl)-2-methoxyphenoxy)pyrimidin-4-yl)oxy)piperidine-1-carboxylate] | 
5 | 1.00 fold | 1.58 fold | 3.53 fold |  | CCc1cnc(N2CCC(Oc3cc(Oc4ccc(/C=C5\SC(=O)NC5=O)cc4)ncn3)CC2)nc1 [Example 41, (Z)-5-(4-((6-((1-(5-Ethylpyrimidin-2-yl)piperidin-4-yl)oxy)pyrimidin-4-yl)oxy)benzylidene)thiazolidine-2,4-dione] | 
6 | 0.65 fold | 1.27 fold | 3.10 fold |  | O=C1NC(=O)/C(=C/c2cccc(Oc3cc(OC4CCN(c5ncccn5)CC4)ncn3)c2)S1 [Example 42, (Z)-5-(3-((6-((1-(Pyrimidin-2-yl)piperidin-4-yl)oxy)pyrimidin-4-yl)oxy)benzylidene)thiazolidine-2,4-dione] | 
7 | 0.94 fold | 1.27 fold | 1.98 fold |  | O=C1NC(=O)/C(=C/c2ccc(Oc3cc(OC4CCN(c5ncccn5)CC4)ncn3)cc2)S1 [Example 43, (Z)-5-(4-((6-((1-(Pyrimidin-2-yl)piperidin-4-yl)oxy)pyrimidin-4-yl)oxy)benzylidene)thiazolidine-2,4-dione] | 
8 | 1.05 fold | 1.33 fold | 2.88 fold |  | CCOC(=O)CN1C(=O)S/C(=C\c2cccc(Oc3ncnc(OC4CCN(C(=O)OC(C)(C)C)CC4)c3C)c2)C1=O [Example 45, (Z)-tert-Butyl 4-((6-(3-((3-(2-ethoxy-2-oxoethyl)-2,4-dioxothiazolidin-5-ylidene)methyl)phenoxy)-5-methylpyrimidin-4-yl)oxy)piperidine-1-carboxylate] | 
9 | 1.58 fold | 1.89 fold | 5.45 fold |  | CC(=O)CN1C(=O)S/C(=C\c2ccc(Oc3cc(OC4CCN(C(=O)OC(C)(C)C)CC4)ncn3)cc2)C1=O [Example 46, (Z)-tert-Butyl 4-((6-(4-((2,4-dioxo-3-(2-oxopropyl)thiazolidin-5-ylidene)methyl)phenoxy)pyrimidin-4-yl)oxy)piperidine-1-carboxylate] | 
10 | 1.73 fold | 4.66 fold | 5.74 fold |  | Cc1c(Oc2cccc(/C=C3\SC(=O)NC3=O)c2)ncnc1OC1CCN(C(=O)OCc2ccccc2)CC1 [Example 50, (Z)-Benzyl 4-((6-(3-((2,4-dioxothiazolidin-5-ylidene)methyl)phenoxy)-5-methylpyrimidin-4-yl)oxy)piperidine-1-carboxylate] | 
11 | 0.79 fold | 1.25 fold | 2.81 fold |  | CCOC(=O)N1CCC(Oc2cc(Oc3cccc(/C=C4\SC(=O)NC4=O)c3)ncn2)CC1 [Example 51, (Z)-Ethyl 4-((6-(3-((2,4-dioxothiazolidin-5-ylidene)methyl)phenoxy)pyrimidin-4-yl)oxy)piperidine-1-carboxylate] | 
12 | 1.15 fold | 1.94 fold | 3.36 fold |  | CCOC(=O)N1CCC(Oc2cc(Oc3ccc(/C=C4\SC(=O)NC4=O)cc3)ncn2)CC1 [Example 52, (Z)-Ethyl 4-((6-(4-((2,4-dioxothiazolidin-5-ylidene)methyl)phenoxy)pyrimidin-4-yl)oxy)piperidine-1-carboxylate] | 
13 | 0.99 fold | 1.79 fold | 3.59 fold |  | CC(C)COC(=O)N1CCC(Oc2cc(Oc3ccc(/C=C4\SC(=O)NC4=O)cc3)ncn2)CC1 [Example 53, (Z)-Isobutyl 4-((6-(4-((2,4-dioxothiazolidin-5-ylidene)methyl)phenoxy)pyrimidin-4-yl)oxy)piperidine-1-carboxylate] | 
14 | 1.31 fold | 2.28 fold | 4.11 fold |  | CC(C)COC(=O)N1CCC(Oc2cc(Oc3cccc(/C=C4\SC(=O)NC4=O)c3)ncn2)CC1 [Example 54, (Z)-Isobutyl 4-((6-(3-((2,4-dioxothiazolidin-5-ylidene)methyl)phenoxy)pyrimidin-4-yl)oxy)piperidine-1-carboxylate] | 
15 | 1.18 fold | 2.86 fold | 4.77 fold |  | CCc1cnc(N2CCC(Oc3cc(Oc4cccc(/C=C5\SC(=O)NC5=O)c4)ncn3)CC2)nc1 [Example 55] | 
16 |  |  |  | 71 nM | CC(C)c1noc(N2CCC(Oc3cc(Oc4cccc(/C=C5\SC(=O)NC5=O)c4)ncn3)CC2)n1 [Example 66, (Z)-5-(3-((6-((1-(3-isopropyl-1,2,4-oxadiazol-5-yl)piperidin-4-yl)oxy)pyrimidin-4-yl)oxy)benzylidene)thiazolidine-2,4-dione] | 41.1%

Reference: patent US8785463B2, “GPR 119 agonists” (Cadila Healthcare Limited, priority 2010, dated 2014)
